From patent publication US10968209B2, “TRPV4 antagonist” (GlaxoSmithKline Intellectual Property (No.2) Limited, priority 2016, dated 2021)

Target: T1, human TRPV4 (Homo sapiens, UniProt Q9HBA0)
T1 construct: expressed in transfected cells; host or cells: HEK293 MSRII cells (BacMam transduction)
Experiment: Ligand-gated assay: FLIPR assay for human TRPV4 expressed in HEK293 MSRII cells
Type: cell-based
Conditions: HEK293 MSRII cells transduced with BacMam virus expressing human TRPV4; Fluo-4 calcium signal; agonist at EC80; read-out: activity (inhibition of Agonist Compound-induced calcium signal)
Description: FLIPR Assay for Human TRPV4 Expressed in HEK293 MSRII Cells
TRPV4 channel activation results in an influx of divalent and monovalent cations including calcium. The resulting changes in intracellular calcium were monitored using a calcium specific fluorescent dye Fluo-4 (MDS Analytical Technologies). HEK293 MSRII cells (human embryonic kidney 293 cells stably expressing the macrophage scavenger receptor class II) transduced with BacMam virus expressing the human TRPV4 gene at 1% final concentration were plated in a 384 well poly-D lysine coated plate (15,000 cells/well in 50 μL culture medium containing DMEM/F12 with 15 mM HEPES, 10% FBS, 1% Penicillin-Streptomycin and 1% L-glutamine). Cells were incubated for 24-72 hours at 37° C. and 5% CO2. Culture medium was then aspirated using a Tecan plate-washer and replaced with 20 μL/well of dye loading buffer: HBSS, 500 μM Brilliant Black (MDS Analytical Technologies), and 2 μM Fluo-4 AM. Dye loaded plates were then incubated in the dark at room temperature for 1-1.5 hours. […] Calcium signals were measured using FLIPR^TETRA (MDS Analytical Technologies) or FLIPR384 (MDS Analytical Technologies) and the inhibition of Agonist Compound-induced calcium signal by the test compound was determined.

T1 sequence (Q9HBA0 whole entry): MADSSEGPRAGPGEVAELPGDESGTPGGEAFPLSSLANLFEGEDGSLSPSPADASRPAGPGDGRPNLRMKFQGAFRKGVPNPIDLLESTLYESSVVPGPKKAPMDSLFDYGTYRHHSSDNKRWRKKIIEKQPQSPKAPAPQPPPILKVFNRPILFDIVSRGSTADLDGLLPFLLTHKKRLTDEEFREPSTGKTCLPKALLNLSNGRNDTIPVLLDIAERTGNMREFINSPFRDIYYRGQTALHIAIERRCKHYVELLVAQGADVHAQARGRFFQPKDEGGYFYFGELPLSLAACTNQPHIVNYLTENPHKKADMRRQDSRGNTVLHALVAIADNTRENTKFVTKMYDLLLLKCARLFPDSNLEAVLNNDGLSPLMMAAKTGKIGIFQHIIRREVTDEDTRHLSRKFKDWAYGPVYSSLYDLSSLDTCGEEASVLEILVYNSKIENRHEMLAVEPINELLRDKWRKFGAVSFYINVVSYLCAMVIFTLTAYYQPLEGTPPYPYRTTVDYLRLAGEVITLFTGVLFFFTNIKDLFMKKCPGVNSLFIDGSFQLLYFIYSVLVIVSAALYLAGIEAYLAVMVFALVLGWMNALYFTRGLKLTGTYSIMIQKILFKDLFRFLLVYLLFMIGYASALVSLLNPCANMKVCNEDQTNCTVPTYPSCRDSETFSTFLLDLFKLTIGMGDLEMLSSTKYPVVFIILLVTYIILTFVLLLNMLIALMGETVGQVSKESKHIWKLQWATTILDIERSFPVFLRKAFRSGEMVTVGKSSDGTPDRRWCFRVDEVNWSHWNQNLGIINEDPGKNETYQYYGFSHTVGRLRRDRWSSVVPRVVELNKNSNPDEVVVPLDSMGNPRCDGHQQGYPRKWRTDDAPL

`N#Cc1ccc2ncn(C[C@@]3(O)CCC[C@@]4(CN(c5cnc(C6CC6)cn5)C(=O)O4)C3)c2c1` [Compound A, 1-(((5S,7R)-3-(5-cyclopropylpyrazin-2-yl)-7-hydroxy-2-oxo-1-oxa-3-azaspiro[4.5]decan-7-yl)methyl)-1H-benzo[d]imidazole-6-carbonitrile] was tested, and the IC50 was 6.3 nM.
